Key:
Type in all cases: cell-based
HSV-1 = assay: Plaque Reduction Test for Herpes Simplex Virus 1 (strain SC16) in MRC-5 cells; settings: Human alphaherpesvirus 1, MRC5
Description: (§1) MRC-5 cells were grown to confluence in 24 well multi-dishes (well diameter=1.5 cm). The drained cell monolayers were each infected with approximately 50 infectious particles of herpes simplex virus 1 (HSV-1; strain SC16) or herpes simplex virus 2 (HSV-2; strain MS) in 100 μl of phosphate-buffered saline. The virus was adsorbed for 1 hour at room temperature. After adsorption, residual inoculum was removed from each well and replaced with 0.5 ml of Eagle's MEM containing 5% newborn calf serum and 0.9% agarose (A37). Once the agarose had set, dilutions of the test compound, which had been prepared in Eagle's MEM (containing 5% newborn calf serum), were added, each well receiving 0.5 ml of liquid overlay. The test compound was diluted to give the following series of concentrations: 200, 60, 20, 6 . . . 0.06 μg/ml; final concentrations in the assay ranged, therefore, between 100 μg/ml and 0.03 μg/ml. The infected cultures were incubated at 37° C. in a humidified atmosphere of 5% CO2 until plaques were clearly visible (usually 1 day).
(§2) Cultures from 1 and 2 were fixed in formal saline, the agarose overlays were carefully washed off, and then the cell monolayers were stained with carbol fuchsin. A stereo microscope was used to count plaques. The IC50 (concentration of drug which inhibits the number of plaques formed by 50% relative to the number of plaques observed in virus control monolayers) of the test compound was calculated. In addition, the monolayers were examined for evidence of drug-induced cytotoxicity; the minimum concentration at which cytotoxicity occurs was recorded.

HSV-2 = assay: Plaque Reduction Test for Herpes Simplex Virus 2 (strain MS) in MRC-5 cells; settings: Human alphaherpesvirus 2, MRC5
Description: as §1, §2

[1] = Drug-induced cytotoxicity for the MRC-5 cell monolayers in the CMV test; settings: human, mrc-5 cells, read-out: concentration at which cytotoxicity was noted
Description: MRC-5 cells were grown to confluence in 24 well multi-dishes (well diameter=1.5 cm). The drained cell monolayers were each infected with approximately 50 infectious particles of cytomegalovirus (CMV; AD-169 strain) in 100 μl of phosphate-buffered saline. The virus was adsorbed for 1 hour at room temperature. After adsorption, residual inoculum was removed from each well and replaced with 1 ml of Eagle's MEM containing 10% heat inactivated foetal calf serum and 0.9% agarose (A37). Once the agarose had set, dilutions of the test compound, which had been prepared in Eagle's MEM (containing 10% heat-inactivated calf serum), were added, each well receiving 1 ml of liquid overlay. The test compound was diluted to give the following series of concentrations: 200, 60, 20, 6 . . . 0.06 μg/ml; final concentrations in the assay range, therefore, between 100 μg/ml and 0.03 μg/ml. The infected cultures were incubated at 37° C. in a humidified atmosphere containing 5% CO2 until plaques were clearly visible (about 12 days). The cultures are fixed in formol saline, the agarose overlays were carefully washed off, and then the cell monolayers were stained with carbol fuchsin. A stereo microscope was used to count plaques. […] In addition, the monolayers were examined for evidence of drug-induced cytotoxicity; the minimum concentration at which cytotoxicity occurs was recorded.

HIV = HIV Suppression test, viral antigen (core protein p24, sandwich ELISA) in peripheral human lymphocytes; settings: Human immunodeficiency virus 1, Lymphocyte, 96 h; Concn. 0.1 μM; read-out: % Inhibition on Day 4 after infection, Viral Antigen
Description: Peripheral human lymphocytes were prepared, cultivated, and harvested as above. Following the determination of the lymphocyte surface markers, unstimulated and mitogen stimulated cells were combined in a ratio of 1:2.
Under safety conditions these cells are infected with a standard preparation of HIV. The cells are sedimented by centrifugation. The supernatant was discarded and cells were resuspended in the HIV inoculum.
This inoculum is a liquid suspension of HIV-1 strain virus, pretested and adjusted to a titer that results in a synthesis of viral core protein p24 of >100 ng/ml at day four following infection of human lymphocytes according to the protocol.
3×10^8 lymphocytes were resuspended in 1 ml HIV inoculum and incubated at 37° C. for 60 minutes. Subsequently, the cells were washed two times with 50 ml of culture medium and resuspended in culture medium containing 10 units/ml of human recombinant interleukin-2 to yield a cell concentration of 2×10^6 cells/ml. 100 μof this cell suspension was added to each well of the microtiter plates containing the diluted solutions of the compounds. The microtiter plates were cultivated in an incubator with a humidified atmosphere and 5% CO2 at 37° C.
Accordingly, a fraction of lymphocytes was mock-infected with the same virus preparation that was heat inactivated (30 minutes at 56° C.) prior to infection.
On each of the days 2,3 and 4 post infection one of the microtiter plates which had been established in triplicate was prepared for determination of viral replication. Viral RNA is determined within the cells whereas the viral core protein p24 was detected in the supernatant of the lymphocyte culture.
Accordingly, 150 μl of supernatant were removed from each well and transferred to the well of a microtiter plate containing 50 μl/well of SDS (sodium dodecylsulfate, 0.08%). These plates were stored frozen. 50 μl of stop solution (1% SDS, 20 mM sodium acetate, pH 5.0, and 200 μg/ml heparin) were added to the cells remaining in each well. The plates were stored frozen.
The concentration of p24 synthesized by the HIV infected cells was determined by means of a sandwich ELISA, while the concentration of viral RNA was quantitated by nucleic acid hybridisation, using a ^32 P-labelled DNA probe for the gag/pol region of the viral genome. Absolute levels of viral antigen and RNA in drug treated samples were compared with untreated, virus-infected controls and the percentage inhibition calculated.

Nc1nc2c(ncn2OCC/C=C/P(=O)(O)O)c(=O)[nH]1 [Example 1, (E)-9-(4-phosphonobut-3-enyloxy)guanine]
IC50 (HSV-1): < 3 µg/mL
IC50 (HSV-2): < 3 µg/mL
MCC [1]: 10 µg/mL
inhibition at 0.1 µM (HIV): 93%
